{
  "source": "BigSolDB 2.1",
  "data": [
    {"smiles": "NC(=S)c1ccncc1", "values": [
      {"measurement": "solubility (mole fraction)", "setting": "in n-hexane, 293.15 K", "result": "2.97e-06"},
      {"measurement": "solubility (mole fraction)", "setting": "in n-hexane, 298.15 K", "result": "3.73e-06"},
      {"measurement": "solubility (mole fraction)", "setting": "in n-hexane, 303.15 K", "result": "4.47e-06"},
      {"measurement": "solubility (mole fraction)", "setting": "in n-hexane, 308.15 K", "result": "5.47e-06"},
      {"measurement": "solubility (mole fraction)", "setting": "in n-hexane, 313.15 K", "result": "6.67e-06"},
      {"measurement": "solubility (mole fraction)", "setting": "in n-octanol, 293.15 K", "result": 0.00347},
      {"measurement": "solubility (mole fraction)", "setting": "in n-octanol, 298.15 K", "result": 0.00431},
      {"measurement": "solubility (mole fraction)", "setting": "in n-octanol, 303.15 K", "result": 0.00516},
      {"measurement": "solubility (mole fraction)", "setting": "in n-octanol, 308.15 K", "result": 0.0062},
      {"measurement": "solubility (mole fraction)", "setting": "in n-octanol, 313.15 K", "result": 0.00744}
    ]},
    {"smiles": "CCc1cc(C(N)=S)ccn1", "values": [
      {"measurement": "solubility (mole fraction)", "setting": "in n-hexane, 293.15 K", "result": "1.84e-05"},
      {"measurement": "solubility (mole fraction)", "setting": "in n-hexane, 298.15 K", "result": "2.22e-05"},
      {"measurement": "solubility (mole fraction)", "setting": "in n-hexane, 303.15 K", "result": "2.73e-05"},
      {"measurement": "solubility (mole fraction)", "setting": "in n-hexane, 308.15 K", "result": "3.2e-05"},
      {"measurement": "solubility (mole fraction)", "setting": "in n-hexane, 313.15 K", "result": "3.88e-05"},
      {"measurement": "solubility (mole fraction)", "setting": "in n-octanol, 293.15 K", "result": 0.00674},
      {"measurement": "solubility (mole fraction)", "setting": "in n-octanol, 298.15 K", "result": 0.00868},
      {"measurement": "solubility (mole fraction)", "setting": "in n-octanol, 303.15 K", "result": 0.0108},
      {"measurement": "solubility (mole fraction)", "setting": "in n-octanol, 308.15 K", "result": 0.0133},
      {"measurement": "solubility (mole fraction)", "setting": "in n-octanol, 313.15 K", "result": 0.016}
    ]},
    {"smiles": "NC(=S)c1ccccn1", "values": [
      {"measurement": "solubility (mole fraction)", "setting": "in n-hexane, 293.15 K", "result": 0.000199},
      {"measurement": "solubility (mole fraction)", "setting": "in n-hexane, 298.15 K", "result": 0.000248},
      {"measurement": "solubility (mole fraction)", "setting": "in n-hexane, 303.15 K", "result": 0.000325},
      {"measurement": "solubility (mole fraction)", "setting": "in n-hexane, 308.15 K", "result": 0.000404},
      {"measurement": "solubility (mole fraction)", "setting": "in n-hexane, 313.15 K", "result": 0.000518},
      {"measurement": "solubility (mole fraction)", "setting": "in n-octanol, 293.15 K", "result": 0.00952},
      {"measurement": "solubility (mole fraction)", "setting": "in n-octanol, 298.15 K", "result": 0.012},
      {"measurement": "solubility (mole fraction)", "setting": "in n-octanol, 303.15 K", "result": 0.0147},
      {"measurement": "solubility (mole fraction)", "setting": "in n-octanol, 308.15 K", "result": 0.0183},
      {"measurement": "solubility (mole fraction)", "setting": "in n-octanol, 313.15 K", "result": 0.0222}
    ]}
  ]
}
